The NIST ThermoML archive (doi:10.1021/je0501639)

Experiments:
[1] = xn = mol fraction of the nth substance listed; conditions: 100.8 kPa, Liquid
[2] = refractive index (Na D-line) (dimensionless); xn = mol fraction of the nth substance listed; conditions: 100.8 kPa, Liquid, Standard Abbe refractometry

CC(C)(C)O [2-methylpropan-2-ol] + CC(C)CC(C)(C)C
Conditions | mass density, 298.15 K [kg/m3] | mass density, 308.15 K [kg/m3] | mass density, 318.15 K [kg/m3] | refractive index, 298.15 K | refractive index, 308.15 K | refractive index, 318.15 K | viscosity, 298.15 K [mPa·s] | viscosity, 308.15 K [mPa·s] | viscosity, 318.15 K [mPa·s]
[1], x1 = 0.05 | 689.77 | 681.15 | 672.12 | – | – | – | 0.483 | 0.425 | 0.377
[1], x1 = 0.1 | 691.89 | 683.25 | 674.11 | – | – | – | 0.509 | 0.449 | 0.4
[1], x1 = 0.15 | 694.45 | 685.62 | 676.56 | – | – | – | 0.515 | 0.447 | 0.394
[1], x1 = 0.2 | 697.14 | 688.28 | 679.2 | – | – | – | 0.553 | 0.478 | 0.413
[1], x1 = 0.25 | 700.02 | 691.11 | 681.96 | – | – | – | 0.564 | 0.48 | 0.42
[1], x1 = 0.3 | 703.12 | 694.14 | 684.92 | – | – | – | 0.598 | 0.522 | 0.449
[1], x1 = 0.35 | 706.4 | 697.38 | 688.11 | – | – | – | 0.614 | 0.523 | 0.45
[1], x1 = 0.4 | 709.87 | 700.8 | 691.43 | – | – | – | 0.665 | 0.564 | 0.48
[1], x1 = 0.45 | 713.52 | 704.42 | 694.99 | – | – | – | 0.698 | 0.59 | 0.504
[1], x1 = 0.5 | 717.43 | 708.24 | 698.77 | – | – | – | 0.765 | 0.633 | 0.542
[1], x1 = 0.55 | 721.62 | 712.37 | 702.81 | – | – | – | 0.805 | 0.672 | 0.564
[1], x1 = 0.6 | 726.19 | 716.85 | 707.21 | – | – | – | 0.912 | 0.726 | 0.614
[1], x1 = 0.65 | 731.11 | 721.69 | 711.98 | – | – | – | 0.984 | 0.786 | 0.649
[1], x1 = 0.7 | 736.55 | 727.03 | 717.21 | – | – | – | 1.107 | 0.866 | 0.706
[1], x1 = 0.75 | 742.44 | 732.81 | 722.88 | – | – | – | 1.297 | 0.994 | 0.798
[1], x1 = 0.8 | 748.88 | 739.1 | 729.03 | – | – | – | 1.557 | 1.14 | 0.889
[1], x1 = 0.85 | 755.87 | 745.89 | 735.65 | – | – | – | 1.895 | 1.332 | 1.028
[1], x1 = 0.9 | 763.54 | 753.43 | 743.04 | – | – | – | 2.426 | 1.622 | 1.164
[1], x1 = 0.95 | 771.9 | 761.62 | 751.07 | – | – | – | 3.172 | 2.02 | 1.398
[1], x1 = 1 | 780.99 | 770.7 | 760.05 | – | – | – | 4.43 | 2.622 | 1.708
[2], x1 = 0.05 | – | – | – | 1.38834 | 1.38325 | 1.37818 | – | – | –
[2], x1 = 0.1 | – | – | – | 1.38784 | 1.38271 | 1.37755 | – | – | –
[2], x1 = 0.15 | – | – | – | 1.38735 | 1.38219 | 1.37703 | – | – | –
[2], x1 = 0.2 | – | – | – | 1.38693 | 1.38177 | 1.37655 | – | – | –
[2], x1 = 0.25 | – | – | – | 1.3865 | 1.38135 | 1.37611 | – | – | –
[2], x1 = 0.3 | – | – | – | 1.38612 | 1.38095 | 1.3757 | – | – | –
[2], x1 = 0.35 | – | – | – | 1.38573 | 1.38055 | 1.37528 | – | – | –
[2], x1 = 0.4 | – | – | – | 1.38537 | 1.38021 | 1.37491 | – | – | –
[2], x1 = 0.45 | – | – | – | 1.38505 | 1.37986 | 1.37458 | – | – | –
[2], x1 = 0.5 | – | – | – | 1.38473 | 1.37955 | 1.37427 | – | – | –
[2], x1 = 0.55 | – | – | – | 1.38445 | 1.37926 | 1.37397 | – | – | –
[2], x1 = 0.6 | – | – | – | 1.3842 | 1.37903 | 1.37371 | – | – | –
[2], x1 = 0.65 | – | – | – | 1.38398 | 1.37881 | 1.37348 | – | – | –
[2], x1 = 0.7 | – | – | – | 1.38381 | 1.37862 | 1.37331 | – | – | –
[2], x1 = 0.75 | – | – | – | 1.38371 | 1.3785 | 1.37317 | – | – | –
[2], x1 = 0.8 | – | – | – | 1.38368 | 1.37847 | 1.37313 | – | – | –
[2], x1 = 0.85 | – | – | – | 1.38381 | 1.37858 | 1.37323 | – | – | –
[2], x1 = 0.9 | – | – | – | 1.38405 | 1.37879 | 1.37339 | – | – | –
[2], x1 = 0.95 | – | – | – | 1.38436 | 1.37914 | 1.37372 | – | – | –
[2], x1 = 1 | – | – | – | 1.38481 | 1.3796 | 1.37416 | – | – | –
